Reference: patent publication US11591355B2 (Peloton Therapeutics, Inc., priority 2017, dated 2023)

Assays:
[1] = biological target: T1, Human CD73 (Homo sapiens, UniProt P21589); assay: CD73 Enzyme Assay; type: biochemical; conditions: 0.25 nM hCD73, 25 μM AMP, kinetic read at 360 nm; read-out: CD73 Enzyme Assay IC50
T1 construct: purchased R&D Systems; host or cells: CHO cells
T1 sequence (P21589 27-549): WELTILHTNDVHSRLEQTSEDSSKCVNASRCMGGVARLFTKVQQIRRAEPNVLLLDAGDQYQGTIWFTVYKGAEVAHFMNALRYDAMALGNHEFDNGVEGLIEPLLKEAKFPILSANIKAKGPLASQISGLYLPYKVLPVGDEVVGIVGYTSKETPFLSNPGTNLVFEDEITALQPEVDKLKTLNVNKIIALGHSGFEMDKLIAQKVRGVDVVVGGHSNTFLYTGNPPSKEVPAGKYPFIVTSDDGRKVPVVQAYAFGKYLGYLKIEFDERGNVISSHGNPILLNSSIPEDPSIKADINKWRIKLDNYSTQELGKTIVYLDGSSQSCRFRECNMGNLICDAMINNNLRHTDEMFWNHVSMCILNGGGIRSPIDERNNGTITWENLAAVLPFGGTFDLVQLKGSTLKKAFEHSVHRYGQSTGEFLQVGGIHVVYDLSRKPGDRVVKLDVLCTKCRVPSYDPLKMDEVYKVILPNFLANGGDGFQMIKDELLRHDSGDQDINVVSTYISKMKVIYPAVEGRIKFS

[2] = biological target: T2, CD73 on U138 human neuroglioma cells (Homo sapiens, UniProt P21589); assay: CD73 Cell-Based Assay; conditions: U138 cells, AMP substrate, 2 hours at 37° C., inorganic phosphate by malachite green
T2 construct: U138 cells were obtained from ATCC and cultured in DMEM with 10% FBS; host or cells: U138 human neuroglioma cells
T2 sequence (P21589 27-549): T1 sequence (P21589 27-549)
How it was run: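 Whole U138 cells washed free of phosphate were incubated with 200 μM AMP (mixture concentration before equal-volume addition) plus compound in HEPES-buffered saline, pH 7.4, for 2 h at 37 °C, 5% CO2. Adenosine-forming activity read as inorganic phosphate released into supernatant by malachite green.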

Row | IC50 [1] | IC50 [2] | SMILES
1 | 100 to 1000 nM | 10 to 100 nM | N#Cc1nc(NC2CCOCC2)c2ccn([C@@H]3O[C@H](COCP(=O)(O)O)[C@@H](O)[C@H]3O)c2n1 [Compound 120, [(2R,3S,4R,5R)-5-[2-cyano-4-(tetrahydro-pyran-4-ylamino)-pyrrolo[2,3-d]-pyrimidin-7-yl]-3,4-dihydroxy-tetrahydro-furan-2-yl]methoxy-methylphosphonic acid]
2 | 10 to 100 nM | < 10 nM | O=P(O)(O)COC[C@H]1O[C@@H](n2ccc3c(NC4CCC(F)(F)CC4)nc(Cl)nc32)[C@H](O)[C@@H]1O [Compound 121, [(2R,3S,4R,5R)-5-[2-chloro-4-[(4,4-difluorocyclohexyl)-amino]pyrrolo[2,3-d]-pyrimidin-7-yl]-3,4-dihydroxy-tetrahydro-furan-2-yl]methoxy-methylphosphonic acid]
3 | 10 to 100 nM | 10 to 100 nM | N#Cc1nc(N2CCC2)c2ccn([C@@H]3O[C@H](COCP(=O)(O)O)[C@@H](O)[C@H]3O)c2n1 [Compound 122, [(2R,3S,4R,5R)-5-[4-(azetidin-1-yl)-2-cyano-pyrrolo[2,3-d]-pyrimidin-7-yl]-3,4-dihydroxy-tetrahydro-furan-2-yl]methoxy-methylphosphonic acid]
4 | < 10 nM | < 10 nM | O=P(O)(O)COC[C@H]1O[C@@H](n2ccc3c(N4CCC(F)(F)C4)nc(Cl)nc32)[C@H](O)[C@@H]1O [Compound 123, [(2R,3S,4R,5R)-5-[2-chloro-4-(3,3-difluoro-pyrrolidin-1-yl)pyrrolo-[2,3-d]pyrimidin-7-yl]-3,4-dihydroxy-tetrahydrofuran-2-yl]-methoxymethylphos-phonic acid]
5 | < 10 nM | < 10 nM | C[C@H](c1ccccc1)N(C)c1nc(Cl)nc2c1ccn2[C@@H]1O[C@H](COCP(=O)(O)O)[C@@H](O)[C@H]1O [Compound 124, [(2R,3S,4R,5R)-5-[2-chloro-4-[methyl-[(1R)-1-phenylethyl]-amino]pyrrolo[2,3-d]-pyrimidin-7-yl]-3,4-dihydroxy-tetrahydro-furan-2-yl]methoxy-methylphosphonic acid]
6 | < 10 nM | < 10 nM | N#Cc1nc(N2CCC(F)(F)C2)c2ccn([C@@H]3O[C@H](COCP(=O)(O)O)[C@@H](O)[C@H]3O)c2n1 [Compound 125, [(2R,3S,4R,5R)-5-[2-cyano-4-(3,3-difluoropyrrolidin-1-yl)-pyrrolo[2,3-d]-pyrimidin-7-yl]-3,4-dihydroxy-tetrahydro-furan-2-yl]methoxy-methylphosphonic acid]
7 | 10 to 100 nM | < 10 nM | O=P(O)(O)COC[C@H]1O[C@@H](n2ccc3c(N4CCCCC4)nc(Cl)nc32)[C@H](O)[C@@H]1O [Compound 126, [(2R,3S,4R,5R)-5-[2-chloro-4-(1-piperidyl)-pyrrolo[2,3-d]-pyrimidin-7-yl]-3,4-dihydroxy-tetrahydro-furan-2-yl]methoxy-methylphosphonic acid]
8 | 10 to 100 nM | 10 to 100 nM | N#Cc1nc(N2CCOCC2)c2ccn([C@@H]3O[C@H](COCP(=O)(O)O)[C@@H](O)[C@H]3O)c2n1 [Compound 127, [(2R,3S,4R,5R)-5-(2-cyano-4-morpholino-pyrrolo[2,3-d]-pyrimidin-7-yl)-3,4-dihydroxy-tetrahydro-furan-2-yl]methoxy-methylphosphonic acid]
9 | 10 to 100 nM | 10 to 100 nM | O=P(O)(O)COC[C@H]1O[C@@H](n2ccc3c(N4CCC(F)(F)CC4)nc(Cl)nc32)[C@H](O)[C@@H]1O [Compound 128, [(2R,3S,4R,5R)-5-[2-chloro-4-(4,4-difluoro-1-piperidyl)pyrrolo-[2,3-d]pyrimidin-7-yl]-3,4-dihydroxy-tetrahydrofuran-2-yl]-methoxymethylphos-phonic acid]
10 | 10 to 100 nM | 10 to 100 nM | N#Cc1nc(N2CCC(F)(F)CC2)c2ccn([C@@H]3O[C@H](COCP(=O)(O)O)[C@@H](O)[C@H]3O)c2n1 [Compound 129, [(2R,3S,4R,5R)-5-[2-cyano-4-(4,4-difluoro-1-piperidyl)pyrrolo-[2,3-d]pyrimidin-7-yl]-3,4-dihydroxy-tetrahydrofuran-2-yl]-methoxymethylphos-phonic acid]
11 | 10 to 100 nM | 10 to 100 nM | C[C@@H](Nc1nc(Cl)nc2c1c(F)cn2[C@@H]1O[C@H](COCP(=O)(O)O)[C@@H](O)[C@H]1O)c1ccccc1 [Compound 130, [(2R,3S,4R,5R)-5-[2-chloro-5-fluoro-4-[[(1R)-1-phenylethyl]-amino]pyrrolo[2,3-d]-pyrimidin-7-yl]-3,4-dihydroxy-tetrahydro-furan-2-yl]methoxy-methylphosphonic acid]
12 | < 10 nM | < 10 nM | C[C@@H](c1ccccc1)N(C)c1nc(Cl)nc2c1ccn2[C@@H]1O[C@H](COCP(=O)(O)O)[C@@H](O)[C@H]1O [Compound 131, [(2R,3S,4R,5R)-5-[2-chloro-4-[methyl-[(1S)-1-phenylethyl]-amino]pyrrolo[2,3-d]-pyrimidin-7-yl]-3,4-dihydroxy-tetrahydro-furan-2-yl]methoxy-methylphosphonic acid]
13 | < 10 nM | 10 to 100 nM | C[C@H](c1ccccc1)N(C)c1nc(Cl)nc2c1ccn2[C@@H]1O[C@H](COCP(=O)(O)OCOC(=O)C(C)(C)C)[C@@H](O)[C@H]1O [Compound 132, ((((((2R,3S,4R,5R)-5-(2-chloro-4-(methyl((R)-1-phenylethyl)amino)-7H-pyrrolo[2,3-d]pyrimidin-7-yl)-3,4-dihydroxytetrahydrofuran-2-yl)methoxy)methyl)(hydroxy)phosphoryl)oxy)methyl pivalate]
14 | > 1000 nM | > 1000 nM | C[C@H](c1ccccc1)N(C)c1nc(Cl)nc2c1ccn2[C@@H]1O[C@H](COCP(=O)(OCOC(=O)C(C)(C)C)OCOC(=O)C(C)(C)C)[C@@H](O)[C@H]1O [Compound 133, ((((((2R,3S,4R,5R)-5-(2-chloro-4-(methyl((R)-1-phenylethyl)amino)-7H-pyrrolo[2,3-d]pyrimidin-7-yl)-3,4-dihydroxytetrahydrofuran-2-yl)methoxy)methyl)phosphoryl)bis(oxy))bis(methylene) bis(2,2-dimethylpropanoate)]
15 | < 10 nM | 10 to 100 nM | C[C@@H](Nc1cc(Cl)nc2c1ccn2[C@@H]1O[C@H](COCP(=O)(O)O)[C@@H](O)[C@H]1O)c1ccccc1 [Compound 134, [(2R,3S,4R,5R)-5-[6-chloro-4-[[(1R)-1-phenylethyl]amino]pyrrolo[2,3-b]pyridin-1-yl]-3,4-dihydroxy-tetrahydrofuran-2-yl]methoxymethylphosphonic acid]
16 | 100 to 1000 nM | 10 to 100 nM | C[C@@H](Nc1nc(Cl)nc2c1ccn2[C@@H]1O[C@H](COCP(=O)(O)O)[C@@H](O)[C@H]1O)c1ccc(F)cn1 [Compound 135, [(2R,3S,4R,5R)-5-[2-chloro-4-[[(1R)-1-(5-fluoro-2-pyridyl)ethyl]-amino]pyrrolo[2,3-d]-pyrimidin-7-yl]-3,4-dihydroxy-tetrahydro-furan-2-yl]methoxy-methylphosphonic acid]
17 | < 10 nM | < 10 nM | Cc1ccc([C@@H](C)Nc2nc(Cl)nc3c2ccn3[C@@H]2O[C@H](COCP(=O)(O)O)[C@@H](O)[C@H]2O)cc1 [Compound 136, [(2R,3S,4R,5R)-5-[2-chloro-4-[[(1R)-1-(p-tolyl)ethyl]amino]-pyrrolo[2,3-d]-pyrimidin-7-yl]-3,4-dihydroxy-tetrahydro-furan-2-yl]methoxy-methylphosphonic acid]
